According to US8673934B2, “Anti-infective agents and/or immunomodulators used for preventive therapy following an acute cerebrovascular accident” (priority 2002, dated 2014):

Assays:
[1] = system: mouse model of cerebral ischemia (MCAO); stroke-induced spontaneous bacterial infection (more than 95% Escherichia coli)
Experimental: (§1) According to the mouse model of cerebral ischemia, a generally accepted model of ischemic stroke, mice were operated according to the MCAO. In this operation, the A. cerebri media is occluded for about 60 minutes, leading to a cerebral infarction typical for this model. As a control, we use the so-called Sham-operation, in which the animals are also MCAO-operated, but in which the A. cerebri media is only occluded for about 1 minute. For the rest, the two paradigms are identical.

[2] = system: mouse model of cerebral ischemia (MCAO); stroke-induced immunodepression and bacterial infection; assay: Immunomodulating therapy in mouse model of cerebral ischemia (MCAO): lymphopenia, lymphocyte/monocyte function, infections, survival; format: in vivo
Experimental: as §1, with “ischemia,” for “ischemia, a generally accepted model of ischemic stroke,”, “identical. Thus, the perioperative stress can be doubtlessly excluded as a systemic mistake for the following results.” for “identical.”
This severe lymphopenia persists at least for 14 days and also affects the spleen and the thymus (FIG. 6:d-g), which constitute essential organs of immunological maturation. Besides the mere numeric decrease, there also occurs a functional impairment with a disturbance of the cytokine secretion capacity after stimulation (FIG. 6: h and j). Besides the disturbance of monocyte function, which manifests as a disturbance of TNF-α secretion for 2 days after LPS-stimulation, one can also detect a lymphocyte alteration after ConA-stimulation; this alteration persisting for 14 days after the stroke and mainly causing a Th1- to Th2-shift (alteration of the IFN-γ/IL4 ratio), which means a loss of pro-inflammatory potential. […] B- and NK-cells only slightly decrease in the blood after the OP-stress. In the spleen and in the thymus, no major stress-induced alterations are detected and the functional parameters of the monocytes and lymphocytes remain at the control level. […] In contrast to this, no infection is found in the control animals (Sham-operated).
Furthermore, the blockade of the SNS by propranolol (30 mg/kg body weight) also prevents the disturbance of function of the remaining monocytes (TNF-α secretion) and of the lymphocytes (IFN-γ/IL-4 ratio) (FIG. 7). The SNS blockade can also prevent the development of infections in the lung (pneumonia) and in the blood (sepsis) (FIG. 7). The dose of propranolol (indicated as mg/kg body weight), which is required for the prevention or drastic reduction of the bacterial infections, also prevents the disturbed INF-γ secretion of the lymphocytes (FIG. 8). To this aim, the administration of propranolol has to be accomplished at a very early stage (immediately up to 12 hours) after the stroke. An application 24 hours after the stroke event has no effect (FIG. 8). An early (before the stroke) chemical sympathicolysis by 6-hydroxydopamin (6-OHDA) as well prevents the stroke-induced, disturbed INF-γ function of the lymphocytes and blocks the severe bacterial infections (FIG. 8).

[3] = after experimental stroke in mice, FIG. 7
[4] = early (before the stroke) chemical sympathicolysis, FIG. 8

With `COc1c(N2C[C@@H]3CCCN[C@@H]3C2)c(F)cc2c(=O)c(C(=O)O)cn(C3CC3)c12` [moxifloxacin, 1-cyclopropyl-6-fluoro-1,4-dihydro-8-methoxy-7-[(4aS,7aS)-octahydro-6H-pyrrolo[3,4-b]-pyridin-6-yl]-4-oxoquinoline-3-carboxylic acid] the neurological deficit ([1]; early administration within the first 24 h) was “drastically reduced”, the “infections (pneumonia, sepsis)” value ([1]; very early (0-12 h) and somewhat later (12-24 h after acute stroke) treatment scheme) was “prevented” and the fever/hyperthermia ([1]; very early (0-12 h) and somewhat later (12-24 h after acute stroke) treatment scheme, FIG. 3) was “significantly reduced”. The “neurological deficit after stroke” value ([1]; very early (0-12 h) and somewhat later (12-24 h after acute stroke) treatment scheme, FIG. 5) was “significantly reduced”.

`CC(C)NCC(O)COc1cccc2ccccc12` (centres unmarked) [propranolol] was tested, and the “disturbance of function of the lymphocytes (IFN-γ/IL-4 ratio)” value ([2]; 30 mg/kg body weight, FIG. 7) was “prevents”, the “disturbance of function of the remaining monocytes (TNF-α secretion)” value ([2]; 30 mg/kg body weight, FIG. 7) was “prevents” and the survival after stroke ([2]; 30 mg/kg body weight, FIG. 10) was “drastically improve”. For the same molecule, the infections ([2]; 30 mg/kg body weight, FIGS. 7 and 8) was “prevent”, the “development of infections in the lung (pneumonia) and in the blood (sepsis)” value ([2]; SNS blockade, FIG. 7) was “prevent” and the “decrease of T- and NK-cells” value [2, 3] was “prevent”. For the same molecule, the “degree of B-cell lymphopenia” value [2, 3] was “significantly reduce”, the “effect on bacterial infections and INF-γ secretion of application 24 hours after the stroke event” value ([2]; application 24 hours after the stroke, FIG. 8) was “no effect” and the “disturbed INF-γ secretion of the lymphocytes” value ([2]; dose required for prevention of bacterial infections, administration immediately up to 12 hours after the stroke, FIG. 8) was “prevents”.

For `NCCc1cc(O)c(O)cc1O` [6-hydroxydopamin (6-OHDA), 6-hydroxydopamin], the severe bacterial infections [2, 4] was “blocks” and the “stroke-induced, disturbed INF-γ function of the lymphocytes” value [2, 4] was “prevents”.

B1: IFN-γ: pro-inflammatory cytokine, interferon (protein, UniProt P01579 24-161, looked up)
Interferon gamma: QDPYVKEAENLKKYFNAGHSDVADNGTLFLGILKNWKEESDRKIMQSQIVSFYFKLFKNFKDDQSIQKSVETIKEDMNVKFFNSNKKKRDDFEKLTNYSVTDLNVQRKAIHELIQVMAELSPAAKTGKRKRSQMLFRG
For B1, the “germ number in the lung” value ([2]; 2 μg, FIG. 9) was “reduce” and the “germ number in the blood” value ([2]; 2 μg, even more pronounced than in the lung, FIG. 9) was “reduce”.
